Key:
Glucocorticoid receptor = molecular target: T1, Glucocorticoid receptor (Homo sapiens, UniProt P04150); assay: Antagonist activity at GR (unknown origin) by Gal4-based cellular assay
T1 sequence (P04150 whole entry): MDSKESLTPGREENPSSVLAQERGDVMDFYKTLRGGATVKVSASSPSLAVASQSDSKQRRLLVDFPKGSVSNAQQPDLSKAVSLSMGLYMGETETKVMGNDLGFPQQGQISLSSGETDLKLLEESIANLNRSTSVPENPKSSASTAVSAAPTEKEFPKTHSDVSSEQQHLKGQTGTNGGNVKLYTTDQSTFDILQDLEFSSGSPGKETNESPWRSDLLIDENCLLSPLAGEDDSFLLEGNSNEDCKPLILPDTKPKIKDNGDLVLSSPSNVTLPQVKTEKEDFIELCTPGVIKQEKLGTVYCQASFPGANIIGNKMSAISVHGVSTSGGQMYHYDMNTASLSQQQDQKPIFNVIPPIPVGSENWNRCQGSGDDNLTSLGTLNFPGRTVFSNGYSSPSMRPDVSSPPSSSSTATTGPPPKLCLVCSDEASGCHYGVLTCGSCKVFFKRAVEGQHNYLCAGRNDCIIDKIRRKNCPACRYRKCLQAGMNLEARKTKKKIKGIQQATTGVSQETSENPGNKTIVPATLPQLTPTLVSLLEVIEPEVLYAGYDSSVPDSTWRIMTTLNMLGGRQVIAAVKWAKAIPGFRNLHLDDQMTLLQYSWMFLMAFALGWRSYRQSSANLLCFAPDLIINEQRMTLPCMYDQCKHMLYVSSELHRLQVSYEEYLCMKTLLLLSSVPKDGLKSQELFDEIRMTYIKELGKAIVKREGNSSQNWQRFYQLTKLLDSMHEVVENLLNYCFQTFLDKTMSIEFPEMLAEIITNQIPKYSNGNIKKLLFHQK

Progesterone receptor = molecular target: T2, Progesterone receptor (Homo sapiens, UniProt P06401); assay: Antagonist activity at PR (unknown origin) by Gal4-based cellular assay
T2 sequence (P06401 whole entry): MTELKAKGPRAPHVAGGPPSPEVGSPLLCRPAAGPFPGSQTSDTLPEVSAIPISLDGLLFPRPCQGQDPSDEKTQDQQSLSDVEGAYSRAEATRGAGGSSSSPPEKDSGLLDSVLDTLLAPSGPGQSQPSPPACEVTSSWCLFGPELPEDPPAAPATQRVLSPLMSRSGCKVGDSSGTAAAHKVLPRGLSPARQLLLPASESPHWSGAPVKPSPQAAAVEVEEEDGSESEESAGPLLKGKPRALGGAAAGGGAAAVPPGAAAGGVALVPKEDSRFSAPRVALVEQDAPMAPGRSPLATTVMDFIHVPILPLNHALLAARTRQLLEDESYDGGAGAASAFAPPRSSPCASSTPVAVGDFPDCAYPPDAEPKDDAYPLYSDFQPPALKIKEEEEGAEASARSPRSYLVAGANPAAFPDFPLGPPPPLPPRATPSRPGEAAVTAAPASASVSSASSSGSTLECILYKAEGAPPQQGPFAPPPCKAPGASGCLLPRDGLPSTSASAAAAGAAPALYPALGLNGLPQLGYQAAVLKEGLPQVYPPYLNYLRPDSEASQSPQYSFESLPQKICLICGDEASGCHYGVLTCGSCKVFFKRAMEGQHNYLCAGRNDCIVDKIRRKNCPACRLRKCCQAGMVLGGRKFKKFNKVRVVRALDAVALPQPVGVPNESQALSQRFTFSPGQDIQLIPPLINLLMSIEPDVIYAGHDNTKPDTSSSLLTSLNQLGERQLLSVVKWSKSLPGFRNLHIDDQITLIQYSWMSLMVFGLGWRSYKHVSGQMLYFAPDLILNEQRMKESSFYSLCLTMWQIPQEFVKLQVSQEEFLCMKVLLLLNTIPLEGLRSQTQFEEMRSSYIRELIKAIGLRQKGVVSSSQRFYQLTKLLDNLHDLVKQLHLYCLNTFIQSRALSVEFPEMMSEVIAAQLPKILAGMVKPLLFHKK

[1] = Distribution coefficient, log D of the compound; assay type: physicochemical; details: octanol/water
CYP3A4 = CYP3A4 (Homo sapiens, UniProt P08684); assay: Inhibition of CYP3A4 (unknown origin) at 3 uM; assay type: ADME
CYP2D6 = CYP2D6 (Homo sapiens, UniProt P10635); assay: Inhibition of CYP2D6 (unknown origin) at 3 uM; assay type: ADME
CYP2C9 = CYP2C9 (Homo sapiens, UniProt P11712); assay: Inhibition of CYP2C9 (unknown origin) at 3 uM; assay type: ADME
Androgen receptor = molecular target: T3, Androgen receptor (Homo sapiens, UniProt P10275); assay: Antagonist activity at human GAL4-DBD fused AR ligand binding domain transfected in human Huh7 cells co-expressing GAL4-RE-Luc assessed as reduction in dihydrotestosterone-induced luciferase activity after 16 hrs by luciferase reporter gene assay; assay type: cell-based
T3 sequence (P10275 whole entry): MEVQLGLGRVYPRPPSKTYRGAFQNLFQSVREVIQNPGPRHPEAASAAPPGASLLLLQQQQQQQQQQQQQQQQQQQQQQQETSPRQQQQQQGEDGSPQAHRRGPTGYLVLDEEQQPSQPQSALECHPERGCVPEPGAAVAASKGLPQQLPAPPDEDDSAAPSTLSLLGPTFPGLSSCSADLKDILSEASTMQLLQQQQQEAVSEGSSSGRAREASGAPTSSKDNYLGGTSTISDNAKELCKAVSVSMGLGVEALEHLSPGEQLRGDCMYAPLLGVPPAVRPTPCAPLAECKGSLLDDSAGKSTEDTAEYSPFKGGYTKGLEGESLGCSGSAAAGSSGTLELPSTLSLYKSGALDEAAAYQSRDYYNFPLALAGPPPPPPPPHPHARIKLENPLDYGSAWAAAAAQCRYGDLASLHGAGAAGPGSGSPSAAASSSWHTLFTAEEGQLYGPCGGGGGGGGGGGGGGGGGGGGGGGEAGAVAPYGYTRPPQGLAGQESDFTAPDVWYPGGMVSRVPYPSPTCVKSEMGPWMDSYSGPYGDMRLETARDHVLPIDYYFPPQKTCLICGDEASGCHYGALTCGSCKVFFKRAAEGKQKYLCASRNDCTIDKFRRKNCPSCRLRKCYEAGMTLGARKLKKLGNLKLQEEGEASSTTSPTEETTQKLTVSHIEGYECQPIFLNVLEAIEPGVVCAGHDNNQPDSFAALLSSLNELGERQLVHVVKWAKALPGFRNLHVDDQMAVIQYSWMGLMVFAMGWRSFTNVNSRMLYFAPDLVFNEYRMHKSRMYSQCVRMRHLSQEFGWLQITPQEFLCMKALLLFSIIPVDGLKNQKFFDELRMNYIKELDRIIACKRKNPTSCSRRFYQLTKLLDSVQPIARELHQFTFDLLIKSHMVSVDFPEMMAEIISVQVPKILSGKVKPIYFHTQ

Sequence of CYP2D6 (P10635 whole entry): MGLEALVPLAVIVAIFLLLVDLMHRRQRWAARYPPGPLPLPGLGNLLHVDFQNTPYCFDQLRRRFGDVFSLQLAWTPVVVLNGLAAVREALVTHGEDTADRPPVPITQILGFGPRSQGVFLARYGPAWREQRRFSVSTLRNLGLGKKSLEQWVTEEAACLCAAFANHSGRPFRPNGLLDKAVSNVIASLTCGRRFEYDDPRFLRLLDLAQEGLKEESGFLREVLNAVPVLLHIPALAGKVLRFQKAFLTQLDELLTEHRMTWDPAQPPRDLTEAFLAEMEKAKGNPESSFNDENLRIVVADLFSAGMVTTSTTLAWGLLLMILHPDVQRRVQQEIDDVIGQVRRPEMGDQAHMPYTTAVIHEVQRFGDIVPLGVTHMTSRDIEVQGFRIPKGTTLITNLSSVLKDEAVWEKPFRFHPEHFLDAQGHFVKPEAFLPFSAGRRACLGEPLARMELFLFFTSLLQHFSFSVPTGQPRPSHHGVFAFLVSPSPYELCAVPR
Sequence of CYP2C9 (P11712 whole entry, the tested form may be a part): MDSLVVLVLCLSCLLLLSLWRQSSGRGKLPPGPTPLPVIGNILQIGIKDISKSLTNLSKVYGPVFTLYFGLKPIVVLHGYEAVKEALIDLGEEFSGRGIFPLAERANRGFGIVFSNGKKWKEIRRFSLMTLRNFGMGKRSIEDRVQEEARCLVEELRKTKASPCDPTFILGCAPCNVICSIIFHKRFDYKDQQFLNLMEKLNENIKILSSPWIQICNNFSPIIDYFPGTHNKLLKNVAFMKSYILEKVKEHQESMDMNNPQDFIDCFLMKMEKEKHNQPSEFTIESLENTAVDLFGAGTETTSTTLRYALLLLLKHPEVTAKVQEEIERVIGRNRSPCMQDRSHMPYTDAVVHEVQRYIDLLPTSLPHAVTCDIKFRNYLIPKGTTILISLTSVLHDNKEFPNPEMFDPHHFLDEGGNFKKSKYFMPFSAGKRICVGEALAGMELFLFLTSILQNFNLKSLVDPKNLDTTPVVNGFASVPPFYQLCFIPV
Sequence of CYP3A4 (P08684 whole entry): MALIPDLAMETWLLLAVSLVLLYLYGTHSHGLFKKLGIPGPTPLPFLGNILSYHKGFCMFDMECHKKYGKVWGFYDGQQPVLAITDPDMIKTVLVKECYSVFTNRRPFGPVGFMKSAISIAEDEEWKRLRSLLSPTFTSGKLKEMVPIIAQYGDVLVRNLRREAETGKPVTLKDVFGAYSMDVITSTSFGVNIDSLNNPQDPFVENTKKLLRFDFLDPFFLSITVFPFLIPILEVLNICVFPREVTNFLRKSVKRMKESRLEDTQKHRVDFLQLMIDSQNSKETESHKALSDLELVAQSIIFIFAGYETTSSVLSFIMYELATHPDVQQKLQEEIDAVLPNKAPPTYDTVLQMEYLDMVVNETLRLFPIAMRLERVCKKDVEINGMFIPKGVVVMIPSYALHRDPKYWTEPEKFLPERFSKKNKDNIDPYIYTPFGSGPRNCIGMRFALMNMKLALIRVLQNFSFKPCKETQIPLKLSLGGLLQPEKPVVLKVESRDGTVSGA

O=C1COc2ccc(N3CCOC[C@H]3c3ccccc3)cc2N1
IC50 (Glucocorticoid receptor): > 10 µM | IC50 (Progesterone receptor): > 10 µM | logD [1]: 2.7 | inhibition at 3 µM (CYP3A4): < 10% | inhibition at 3 µM (CYP2D6): < 10% | inhibition at 3 µM (CYP2C9): < 10% | IC50 (Androgen receptor): > 10 µM

C[C@@H]1CN(c2ccc3c(n2)NC(=O)CO3)[C@H](c2ccccc2)CO1
IC50 (Glucocorticoid receptor): > 10 µM | IC50 (Progesterone receptor): > 10 µM | logD [1]: 2.8 | inhibition at 3 µM (CYP3A4): < 20% | inhibition at 3 µM (CYP2D6): < 20% | inhibition at 3 µM (CYP2C9): < 20% | IC50 (Androgen receptor): > 10 µM

From ChEMBL document CHEMBL4024791, “Identification of Morpholino-2H-pyrido[3,2-b][1,4]oxazin-3(4H)-ones as Nonsteroidal Mineralocorticoid Antagonists” (J Med Chem, 2018)
